What was measured:
Type in all cases: in vivo
C57B1/6J mice [1] = assay: Effect of UDCA on death (death rate, death time) of mice by a single subcutaneous injection of TCDD
Description: (§1) Male C57B1/6J mice of 5 weeks old having the average weight of 18-22 g which had been bred in CRJ (Charles River in Japan) were purchased and used in this example as experimental animals. Those mice were acclimated under the constant breeding condition, i.e. the temperature of 24±1° C., the humidity of 60±10% and the light and darkness cycle of 12 hours, for one week and thereafter, utilized in the experiment.
(§2) The Experimental animals were supplied with Purina powdered feed (purchased from Hae Eun Trade) and supplied with water ad libitum. All the animals were weighed twice a week during experimentation.
(§3) 2,3,7,8-tetrachlorodibenzo-p-dioxin (TCDD) dissolved in toluene (purity of 95% or more as a result of gas chromatography analysis), manufactured by Chem. Services Inc. in USA, was volatilized with nitrogen to obtain powder. The obtained powder was dissolved in a mixed solvent containing acetone and corn oil with a volume ratio of 1:6. The resulting solution each containing 110, 27.5 and 6.9 μg/kg of TCDD was subcutaneously injected to mice at a volume of 5 ml per body weight. […] The mice were supplied with the feed from 10 days before (pre-administration) to 60 days after administration of TCDD (post-administration).
(§4) The results are expressed as Mean±Standard Deviation values. For statistical analysis of the body weight, feed and water uptake, biochemical findings, hematological findings and the weight of organ in an acute toxicity test, verification was performed by one way analysis of variance (ANOVA) in case of equal distribution. In case significance was recognized in ANOVA, the Student's t-test was performed in the levels of p<0.05 and p<0.01.

C57B1/6J mice [2] = assay: Feed uptake of mice after a single subcutaneous injection of TCDD; set-up: unit not given here
Description: as §1, §2, §3, §4

C57B1/6J mice [3] = assay: Water uptake of mice after a single subcutaneous injection of TCDD; set-up: unit not given here
Description: as §1, §2, §3, §4

C57B1/6J mice [4] = assay: Optical microscopy of testes (histopathological findings); details: TCDD 27.5 μg/kg alone; FIG. 2
Description: as §3
Upon completion of the experiment for 60 days, the experimental animals were fasted for 24 hours and anesthetized with ether. Then, they were abdominally incised and blood was gathered from abdominal vena cava. They were sacrificed by the release of blood. Liver, kidneys, testes and epididymides were extracted and all the extracted organs were weighed. Only the testes were separately kept and observed under optical and electron microscopes. For biochemical finding test, serum was separated from blood with a centrifuge and the separated serum was analyzed with an automated blood biochemical analyzer, Dimension (Dupont, USA). Blood was put to another blood gathering bottle and then, analyzed with an automated blood cell analyzer, Celldyn (Abbott, USA).
The extracted testes were fixed in 10% neutralized formalin buffer for 24 hours and washed with the flowing water. It was subsequently dehydrated with ethanol and cleared with xylene and then, embedded with paraffin. It was sectioned with microtome (microm is HM 440E) to a thickness of 2-3 μm and then, double stained with hematoxylin and eosin to observe under an optical microscope.

[5] = TCDD 110.0 μg/kg alone, 10 days
[6] = TCDD 110.0 μg/kg alone, 20 days
[7] = TCDD 110.0 μg/kg alone, 30 days

Which Death rate (C57B1/6J mice [1]; TCDD 6.9 μg/kg alone) does the source give for Clc1cc2c(cc1Cl)Oc1cc(Cl)c(Cl)cc1O2 [TCDD, 2,3,7,8-tetrachlorodibenzo-p-dioxin] here?
The Death rate was 0%.

What about the “No. of dead mice/No. of administered mice” value (C57B1/6J mice [1]; TCDD 6.9 μg/kg alone) of the same compound?
The value was 0/10.

And the Death rate (C57B1/6J mice [1]; TCDD 27.5 μg/kg alone)?
The Death rate was 30%.

And the “Death time (Mean ± SD)” value (C57B1/6J mice [1]; TCDD 27.5 μg/kg alone)?
The value was 55 ± 5 days.

What about the “No. of dead mice/No. of administered mice” value (C57B1/6J mice [1]; TCDD 27.5 μg/kg alone) of the same compound?
The value was 3/10.

What about the “Death time (Mean ± SD)” value (C57B1/6J mice [1]; TCDD 110.0 μg/kg alone) of the same compound?
Its value is 35 ± 7 days.

What about the “No. of dead mice/No. of administered mice” value (C57B1/6J mice [1]; TCDD 110.0 μg/kg alone) of the same compound?
Its value is 10/10.

What about the feed uptake (C57B1/6J mice [2]; TCDD 6.9 μg/kg alone, 10 days) of the same compound?
Its feed uptake is 4.76 ± 0.74.

What about the feed uptake (C57B1/6J mice [2]; TCDD 6.9 μg/kg alone, 20 days) of the same compound?
Its feed uptake is 4.33 ± 0.84.

What about the feed uptake (C57B1/6J mice [2]; TCDD 6.9 μg/kg alone, 30 days) of the same compound?
Its feed uptake is 4.97 ± 1.00.

And the feed uptake (C57B1/6J mice [2]; TCDD 6.9 μg/kg alone, 40 days)?
Its feed uptake is 4.97 ± 1.00.

What about the feed uptake (C57B1/6J mice [2]; TCDD 6.9 μg/kg alone, 50 days) of the same compound?
Its feed uptake is 3.51 ± 0.31.

And the feed uptake (C57B1/6J mice [2]; TCDD 6.9 μg/kg alone, 60 days)?
The feed uptake was 3.28 ± 1.56.

What about the feed uptake (C57B1/6J mice [2]; TCDD 27.5 μg/kg alone, 10 days) of the same compound?
The feed uptake was 3.86 ± 0.87.

What about the feed uptake (C57B1/6J mice [2]; TCDD 27.5 μg/kg alone, 20 days) of the same compound?
The feed uptake was 3.17 ± 1.68.

And the feed uptake (C57B1/6J mice [2]; TCDD 27.5 μg/kg alone, 30 days)?
Its feed uptake is 2.37 ± 0.37.

And the feed uptake (C57B1/6J mice [2]; TCDD 27.5 μg/kg alone, 40 days)?
Its feed uptake is 1.90 ± 0.27.

And the feed uptake (C57B1/6J mice [2]; TCDD 27.5 μg/kg alone, 50 days)?
Its feed uptake is 1.50 ± 0.16.

And the feed uptake (C57B1/6J mice [2]; TCDD 27.5 μg/kg alone, 60 days)?
Its feed uptake is 1.58 ± 0.32.

And the feed uptake (C57B1/6J mice [2]; [5])?
The feed uptake was 4.19 ± 0.96.

And the feed uptake (C57B1/6J mice [2]; [6])?
The feed uptake was 3.21 ± 1.13.

What about the feed uptake (C57B1/6J mice [2]; [7]) of the same compound?
The feed uptake was 3.88 ± 0.96.

What about the feed uptake (C57B1/6J mice [2]; TCDD 110.0 μg/kg alone, 40 days) of the same compound?
The feed uptake was 2.23 ± 0.56.

What about the water uptake (C57B1/6J mice [3]; TCDD 6.9 μg/kg alone, 10 days) of the same compound?
Its water uptake is 4.23 ± 0.52.

And the water uptake (C57B1/6J mice [3]; TCDD 6.9 μg/kg alone, 20 days)?
Its water uptake is 4.08 ± 0.72.

And the water uptake (C57B1/6J mice [3]; TCDD 6.9 μg/kg alone, 30 days)?
Its water uptake is 4.70 ± 0.42.

And the water uptake (C57B1/6J mice [3]; TCDD 6.9 μg/kg alone, 40 days)?
The water uptake was 4.30 ± 0.42.

And the water uptake (C57B1/6J mice [3]; TCDD 6.9 μg/kg alone, 50 days)?
Its water uptake is 4.72 ± 0.39.

What about the water uptake (C57B1/6J mice [3]; TCDD 6.9 μg/kg alone, 60 days) of the same compound?
The water uptake was 4.88 ± 0.17.

What about the water uptake (C57B1/6J mice [3]; TCDD 27.5 μg/kg alone, 10 days) of the same compound?
Its water uptake is 3.38 ± 0.75.

And the water uptake (C57B1/6J mice [3]; TCDD 27.5 μg/kg alone, 20 days)?
Its water uptake is 3.58 ± 0.14.

What about the water uptake (C57B1/6J mice [3]; TCDD 27.5 μg/kg alone, 30 days) of the same compound?
Its water uptake is 3.10 ± 0.14.

What about the water uptake (C57B1/6J mice [3]; TCDD 27.5 μg/kg alone, 40 days) of the same compound?
Its water uptake is 3.10 ± 0.14.

What about the water uptake (C57B1/6J mice [3]; TCDD 27.5 μg/kg alone, 50 days) of the same compound?
The water uptake was 2.89 ± 0.63.

What about the water uptake (C57B1/6J mice [3]; TCDD 27.5 μg/kg alone, 60 days) of the same compound?
The water uptake was 3.19 ± 0.21.

And the water uptake (C57B1/6J mice [3]; [5])?
Its water uptake is 3.27 ± 0.78.

What about the water uptake (C57B1/6J mice [3]; [6]) of the same compound?
Its water uptake is 4.00 ± 0.66.

And the water uptake (C57B1/6J mice [3]; [7])?
Its water uptake is 4.70 ± 0.42.

And the “seminiferous tubules, optical microphotograph” value (C57B1/6J mice [4])?
Its value is “remarkably reduced spermatogenesis was observed”.

Source: patent US20040029965A1, “Formulations for reducing or eliminating toxicity of enviromental hormones containing ursodeoxycholic acid” (priority 2000, published 2004)
